The results in this text go back to the OPERA property sets (Mansouri et al. 2018).

With `Cc1cccc(C(=O)NN)c1`, the logP (in general, the decadic logarithm of the partition coefficient of the neutral form, usually between octanol and water) was 0.74.

`CNC(=O)Oc1cccc(OC)c1` showed a logP of 1.3.

For the compound `CON(C)C(=O)Nc1ccc([N+](=O)[O-])cc1`, the logP was determined as 1.74.

For `CCC(=O)C1(c2cccc(OC(=O)c3ccccc3)c2)CCN(C)CC1`, the logP came out at 3.03.

`O=C(O)COc1cccc(C(=O)O)c1` displayed a logP of 1.11.

`OC[C@H]1O[C@@H](Oc2ccccc2)[C@H](O)[C@@H](O)[C@@H]1O` displayed a logP of -0.75.

For `CCc1ccc(OC(=O)NC)cc1`, the logP is 2.23.

As to `Clc1cc(Cl)c(-c2cccc(Cl)c2Cl)cc1Cl`, the logP came to 6.67.

With `Brc1ccc2[nH]ccc2c1`, the logP amounted to 3.

The compound `CNC(=O)N(C)c1ccccc1` registered a logP of 1.02.

With `COc1ccc2c(c1)N(C[C@H](C)CN(C)C)c1ccccc1S2`, the logP was found to be 4.68.

Take `O=C(O)c1ccc([N+](=O)[O-])cc1Cl`: the logP is 2.03.

On to `FC(F)(F)c1ccc(C(F)(F)F)cc1`, for which the logP is 3.83.

The compound `OC(c1ccccc1)c1ccccn1` (stereo unspecified) returned a logP of 1.52.

Turning to `CCCCCCCC1(c2ccncc2)CCC(=O)NC1=O` (stereo unspecified), the logP was 3.44.

In turn, `O=C(Oc1ccccc1)n1c(=O)[nH]cc(F)c1=O` came in with a log partition coefficient (logP) of 1.73.
